How the values were obtained:
Phakopsora pachyrhizi = Phakopsora pachyrhizi / soybean / leaf disc preventative (Asian soybean rust); format: in vivo; conditions: foliar, 200 ppm in the applied formulation, soybean leaf disks, inoculated one day after application, assessed 12 to 14 days after application, read-out: disease control compared to untreated control leaf disks
Summary of the method: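 Read-out is percent disease control relative to untreated check discs, assessed once untreated discs show adequate disease, 12 to 14 days after application. Compounds, tested at 200 ppm in the applied formulation, are sprayed onto soybean leaf discs one day before inoculation with a spore suspension.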

[1] = tested on: Puccinia recondita f. Sp. Tritici; test: Puccinia recondita f. sp. tritici / wheat / leaf disc preventative (brown rust); format: in vivo; conditions: foliar, 200 ppm in the applied formulation, wheat leaf segments cv. Kanzler, inoculated 1 day after application, assessed 7 to 9 days after application, read-out: disease control compared to untreated control leaf disks
Summary of the method: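 Compound, diluted from DMSO solution into aqueous 0.025% Tween20, is sprayed at 200 ppm onto cut wheat segments (cv. Kanzler) placed on water agar. One day on, segments receive a fungal spore suspension and are incubated at 19° C., 75% rh, 12 h photoperiod, with % control vs untreated scored at 7–9 days.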

[2] = tested on: Puccinia recondita f. Sp. Tritici; test: Puccinia recondita f. sp. tritici / wheat / leaf disc curative (brown rust); format: in vivo; conditions: foliar, 200 ppm in the applied formulation, wheat leaf segments cv. Kanzler, applied 1 day after inoculation, assessed 6 to 8 days after application, read-out: disease control compared to untreated control leaf disks
Protocol: Leaf disks or leaf segments of various plant species are cut from plants grown in a greenhouse. The cut leaf disks or segments are placed in multiwell plates (24-well format) onto water agar. The leaf disks are sprayed with a test solution before (preventative) or after (curative) inoculation. Compounds to be tested are prepared as DMSO solutions (max. 10 mg/ml) which are diluted to the appropriate concentration with 0.025% Tween20 just before spraying. The inoculated leaf disks or segments are incubated under defined conditions (temperature, relative humidity, light, etc.) according to the respective test system. A single evaluation of disease level is carried out 3 to 14 days after inoculation, depending on the pathosystem. Percent disease control relative to the untreated check leaf disks or segments is then calculated.
Wheat leaf segments cv. Kanzler are placed on agar in multiwell plates (24-well format). The leaf segments are then inoculated with a spore suspension of the fungus. Plates were stored in darkness at 19° C. and 75% relative humidity. The formulated test compound diluted in water was applied 1 day after inoculation. The leaf segments were incubated at 19° C. and 75% relative humidity under a light regime of 12 hours light/12 hours darkness in a climate cabinet and the activity of a compound was assessed as percent disease control compared to untreated when an appropriate level of disease damage appears in untreated check leaf segments (6 to 8 days after application).
The following compounds at 200 ppm in the applied formulation give at least 80% disease control in this test when compared to untreated control leaf disks under the same conditions, which show extensive disease development.

[3] = tested on: Glomerella lagenarium (Colletotrichum lagenarium); test: Glomerella lagenarium (Colletotrichum lagenarium) liquid culture / cucumber / preventative (anthracnose); format: cell-based; conditions: Colletotrichum orbiculare; 20 ppm in the applied formulation; liquid culture in PDB, 24° C.; 3 to 4 days after application; read-out: disease control compared to untreated control (inhibition of growth measured photometrically)
Summary of the method: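 Photometric read-out of fungal growth 3 to 4 days after application, expressed as percent control relative to untreated wells. Plates held at 24 °C. Compound placed in DMSO before adding PDB broth seeded with conidia from cryogenic storage.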

melting point [°C] | SMILES | pest or weed control at 200 ppm (Phakopsora pachyrhizi) [%] | pest or weed control at 200 ppm [1] [%] | pest or weed control at 200 ppm [2] [%] | inhibition at 20 ppm [3] [%]
116 to 120 | [O-][S+](Cc1ccc(-c2noc(C(F)(F)F)n2)cn1)c1ccccc1 (stereo not drawn) [Compound 2.28, 3-[6-(benzenesulfinylmethyl)-3-pyridyl]-5-(trifluoromethyl)-1,2,4-oxadiazole] | ≥ 80 | ≥ 80 | ≥ 80 | ≥ 80
128 to 132 | O=S(=O)(c1ccccc1)c1ccc(-c2noc(C(F)(F)F)n2)cc1 [Compound 3.1, 3-[4-(benzenesulfonyl)phenyl]-5-(trifluoromethyl)-1,2,4-oxadiazole] | ≥ 80 | ≥ 80 | ≥ 80 | ≥ 80
85 to 92 | O=S(=O)(c1ccc(-c2noc(C(F)(F)F)n2)cc1)C1CCCC1 [Compound 3.16, 3-(4-cyclopentylsulfonylphenyl)-5-(trifluoromethyl)-1,2,4-oxadiazole] | ≥ 80 | ≥ 80 | ≥ 80 | ≥ 80
